In patent US7037913B2, “Bicyclo 4.4.0 antiviral derivatives” (priority 2002, dated 2006):

System: HIV-1 single-round infectious reporter virus
Test: Single-round infectious HIV-1 luciferase reporter virus infection of HeLa CD4 CCR5 cells
Type: cell-based
Settings: Human immunodeficiency virus 1, HeLa-CD4/CCR5, 72 h, read-out: Group (EC50)
Source text: The materials and experimental procedures used to obtain the results for representative compounds of Formula I reported in Tables 7–9 are described below.
• Virus production—Human embryonic Kidney cell line, 293, propagated in Dulbecco's Modified Eagle Medium (Life Technologies, Gaithersburg, Md.) containing 10% fetal Bovine serum (FBS, Sigma, St. Louis, Mo.). • Virus infection—Human epithelial cell line, HeLa, expressing the HIV-1 receptors CD4 and CCR5 was propagated in Dulbecco's Modified Eagle Medium (Life Technologies, Gaithersburg, Md.) containing 10% fetal Bovine serum (FBS, Sigma, St. Louis, Mo.) and supplemented with 0.2 mg/ml Geneticin (Life Technologies, Gaithersburg, Md.) and 0.4 mg/ml Zeocin (Invitrogen, Carlsbad, Calif.). • Virus—Single-round infectious reporter virus was produced by co-transfecting human embryonic Kidney 293 cells with an HIV-1 envelope DNA expression vector and a proviral cDNA containing an envelope deletion mutation and the luciferase reporter gene inserted in place of HIV-1 nef sequences (Chen et al, Ref. 41). […] Viral infection was monitored by measuring luciferase expression from viral DNA in the infected cells using a luciferase reporter gene assay kit (Roche Molecular Biochemicals, Indianapolis, Ind.). […] Luciferase activity was then quantified by measuring luminescence using a Wallac microbeta scintillation counter. • 5. […]

Work on `C[C@@H]1CN(C(=O)c2ccccc2)CCN1C(=O)C(F)(F)c1ccc2ccccc2c1` [Example 54] yielded an EC50 of under 1 µM.

Work on `C[C@@H]1CN(C(=O)c2ccccc2)CCN1C(=O)C1(c2ccc3ccccc3c2)CC1` [Example 55] yielded an EC50 of under 1 µM.
